Active and inactive are the calls of the source.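 How the source made its calls: active means fitted curve crossing a set activation limit at or below the highest valid dose tested; inconclusive means flat fit at 30 to 70% activation, or poor fit; inactive means the rest, including signal decreases.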

The assay concerns D54 ERlucT glycosylation luciferase reporter, luminescence, 24 h. Nature of the assay: blockers of NLG process in reporter cells – D54 ERlucT cells, luminescence, cherry-picks, dose response (AID 624491).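 Further: signal gain reflects blocked N-linked glycosylation of a luciferase reporter; actives raise luciferase signal so AC26 marks activators of the reporter.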
With `c1ccc(CNc2nc(-c3ccccc3)nc3ccccc23)cc1`, the AC26 is 1570 nM. For the molecule `COc1ccccc1CCNCc1ccc(OC)c(OCc2ccccc2)c1`, the AC26 is 994 nM. Consider `CC(=O)Nc1ccc(NC(=O)c2ccc(-c3c(C)noc3C)c3ccoc23)cc1`, for which the AC26 is 1350 nM. As for `O=C(Nc1nc2ccccc2c(=O)s1)c1ccco1`, the AC26 is 653 nM. As for `CC(/C=N/NC(=O)c1cc(-c2ccccc2)nc2ccccc12)=C\c1ccco1`, the figure is 2040 nM; as for `O=C(NCc1ccccc1)C(=O)NCC1COc2ccccc2O1` (configuration not stated), 13000 nM. As for `Cc1ccc2[nH]c(=O)c3cc(C(=O)NC(C)C)sc3c2c1`, the figure is 3990 nM; as for `COc1cc(N)ccc1Nc1c2ccccc2nc2ccccc12`, 70 nM; as for `COc1cc(/C=N/Nc2nc3c(c(=O)n(C)c(=O)n3C)n2Cc2ccccc2)ccc1OC(=O)c1ccco1`, 10500 nM. As for `CCOc1cc(-c2cc(-c3ccccc3)nc(N)c2C#N)ccc1O`, the figure is 2480 nM; as for `COc1cc(C(=O)NCCOc2cc(C)cc(C)c2)cc(OC)c1OC`, 2370 nM. As to `O=C(CN1CCC(O)(c2cccc(F)c2)CC1)NCCc1c[nH]c2ccccc12`, the AC26 is 1150 nM.

With `COc1cc(COCC(O)CN2CCN(CCN3C(=O)c4cccc5cccc(c45)C3=O)CC2)cc(OC)c1OC` (configuration not stated), the AC26 is 1230 nM. With `CC(CC(=O)Nc1ccc2c(c1)c(=O)n(C)n2-c1cccs1)c1ccccc1` (configuration not stated), the AC26 is 6270 nM. To `COc1ccc(NC(=O)C2Cc3c(-c4cccc(NC(C)=O)c4)ccnc3O2)cn1` (configuration not stated) belongs 2590 nM; to `Cc1ccc(C)c(NC(=O)Cn2nnc(C(=O)NCc3ccco3)c2N)c1`, 9800 nM; to `COc1cc(C(=O)Nc2ccc3c(c2)nc(C)n3C)cc(OC)c1OC`, 2690 nM. To `COc1ccc2c(c1)C(=O)N1[C@H]3c4cc(C)ccc4OC[C@@H]3[C@H](c3ccccc3)[C@]1(C)C(=O)N2` belongs 358 nM. As for `CCN(CC)c1ccc(NC(=O)CC2Oc3ccccc3NC2=O)c(C)c1` (configuration not stated), the figure is 11600 nM. Turning to `CCOC(=O)N1CCc2cc(OC)c(OC)c3c2c1cc1cc(OC)c(OC)cc13`, the AC26 was 11100 nM. As for `COc1ccc(NC2=C(C)C(=O)CC2)cc1`, the figure is 2940 nM. As for `COC(=O)CNC(c1ccccc1)c1cc(Br)ccc1NC(=O)CCN1CCOCC1` (configuration not stated), the figure is 4810 nM; as for `O=C(Cc1ccc(-c2ccccc2)cc1)NCc1ccccc1`, 27.8 nM. As for `CN1C(=O)CSc2ccc(NC(=O)Nc3ccccn3)cc21`, the AC26 was 4260 nM. As for `CN(C)CCCN1C(=O)c2cccc3c([N+](=O)[O-])ccc(c23)C1=O`, the figure is 169 nM; as for `COc1cccc(N2CCN(C(=O)c3[nH]c(C)c(C(C)=O)c3C)CC2)c1`, 1680 nM; as for `CCOC(=O)c1cc2[nH]c3ccccc3c2[n+](-c2ccc([N+](=O)[O-])cc2)c1N`, 1930 nM.

As to `CCOC(=O)c1c(NC(C)=O)sc2c(OCCN(CC)CC)c(Br)ccc12`, the AC26 is 2690 nM. To `CCN(CC)CCCNc1ccc2ncn3c4ccc(O)cc4c(=O)c1c23` belongs 92.6 nM. As for `Cc1nc(SCC(=O)Nc2ccc(F)cc2)c(C#N)c(C)c1CC(=O)c1ccc(Br)cc1`, the figure is 1660 nM; as for `Nc1cccc2c1C(=O)N(C(=O)/C=C/c1ccc(F)cc1)C2=O`, 6790 nM; as for `NNC(=O)c1nc(-c2ccccc2)cc(-c2ccccc2)n1`, 2320 nM. As for `Cc1c(Cl)cccc1Nc1nc(N)nc(CN2CCc3ccccc3C2)n1`, the figure is 320 nM; as for `C=C(C)Cn1c2ccc(NC(=O)CCc3cccc(Cl)c3)cc2c(=O)n1C`, 7490 nM. With `COc1cc(NC(=O)c2ccccc2OCc2ccccc2)cc(OC)c1OC`, the AC26 is 1030 nM. To `O=C(O)c1ccc(N/N=C/c2ccc(-c3ccc(Cl)cc3Cl)o2)cc1` belongs 5330 nM.

In the case of `COc1cccc(C2=NOC(C(=O)NCc3ccc(F)cc3)C2)c1` (configuration not stated), the AC26 is 1160 nM. To `O=S(=O)(Cc1ccc(Cl)cc1Cl)c1ccc(Cl)cc1` belongs 234 nM; to `CC(=O)c1cccc(NC(=O)CSc2ncc(C(=O)Nc3ccccc3)c(=O)n2C)c1`, 1350 nM; to `Cc1ccc(S(=O)(=O)N(C)C[C@H]2Oc3ccc(NC(=O)C4CCCCC4)cc3C(=O)N([C@H](C)CO)C[C@H]2C)cc1`, 1140 nM. For the molecule `COc1ccc(-c2cc(C(=O)NCC(c3ccccc3)N(C)C)c3ccccc3n2)cc1OC` (configuration not stated), the AC26 is 1320 nM. For the molecule `COC(=O)C1=C(c2cc3ccccc3o2)C[C@@H]2CC[C@H]1N2C(=O)N1CCOCC1`, the AC26 was > 19500 nM (inactive). As for `COc1ccc(CNC(=O)C/C(C)=N/NC(=O)COc2ccc(C)cc2Br)cc1`, the figure is 5660 nM; as for `CC(C)Oc1ccc(C(=O)/C=C2/C(=O)Nc3ccccc32)cc1`, 3230 nM. Take `COc1ccc2c(-c3cc4ccc(OCc5ccc(F)cc5)cc4oc3=O)cc(=O)oc2c1`: the AC26 was 4410 nM. To `Cc1cnc(C(=O)Nc2ccc(OC(F)(F)F)cc2)cn1` belongs 9150 nM; to `Cc1ccc2c(c1)C(=O)N1[C@H]3c4cc(Br)ccc4OC[C@@H]3[C@H](c3ccccc3)[C@]1(C)C(=O)N2`, 689 nM; to `CSc1nnc(-c2sccc2OCc2ccccc2)n1C`, 1950 nM. As to `COc1cc2c(cc1OC)C(C)N(C(=O)Nc1cc(C)cc(C)c1)CC2` (configuration not stated), the AC26 was 6970 nM.

On to `NC(=O)COc1ccc(C(=O)/C=C2/C(=O)Nc3ccccc32)cc1`, for which the AC26 was 3180 nM. To `CSc1ccc(/C=N/NC(=O)c2ccccc2Cl)cc1` belongs 3680 nM.

In the case of `Cc1cccc2cc(/C=C/C(=O)c3ccco3)c(Cl)nc12`, the AC26 was 3830 nM. As for `COc1cc2c(cc1OC)C(c1ccccc1)N(C(=O)c1ccccc1F)CC2` (configuration not stated), the figure is 1100 nM; as for `CC(NC(=O)c1cccc2ccccc12)c1ccc2c(c1)CCCC2` (configuration not stated), 6480 nM. To `COc1ccc(OC)c(S(=O)(=O)Nc2ccc3c(c2)n(C)c(=O)n3C)c1` belongs 3320 nM; to `CC(=O)Nc1ccc2cc3ccc(NC(C)=O)cc3nc2c1`, 5210 nM; to `Cc1cc(N2CCCCC2)nc(NCc2ccccc2)n1`, > 19500 nM (inactive).

Take `CCOc1cc(-c2c(C#N)c(N)nc3c2CCc2ccccc2-3)ccc1O`: the AC26 was 9010 nM.

Turning to `COc1cc(C2=NOC(C(=O)NCc3ccco3)C2)cc(OC)c1OC` (configuration not stated), the AC26 was 1030 nM. To `CC1(C(=O)NCc2ccccc2)Cc2c(-c3cccc(C(N)=O)c3)ccnc2O1` (configuration not stated) belongs 2100 nM; to `CCN(CC)CCNc1ccc(CO)c2oc3ccccc3c(=O)c12`, 1280 nM; to `O=C(Nc1cccc(-n2cnnn2)c1)c1cc(Cl)ccc1Cl`, 4570 nM. For the molecule `COC(=O)c1c(NC(=O)c2cccnc2Cl)sc(C(=O)N(C)C)c1C`, the AC26 was 2090 nM.

For `Cc1cc(C)nc(/N=C(\N)Nc2ccc(CC(=O)OC(C)C)cc2)n1`, the AC26 is 5890 nM. To `Cn1cnc([N+](=O)[O-])c1S(=O)(=O)c1cccc(Cl)c1` belongs 1200 nM; to `CCOc1ccc(S(=O)(=O)NCc2cccnc2)cc1NC(=O)c1ccccc1F`, 9740 nM; to `CCc1nnc2n1N=C(c1ccc(OC)cc1)CS2`, 6840 nM. As for `CCN(CC)CCNc1ccc(CO)c2oc3cc(Cl)ccc3c(=O)c12`, the figure is 2820 nM. As for `CCN(CC)CCn1c2ccccc2c2cnc(N)c(C#N)c21`, the figure is 750 nM; as for `Cc1nc([N+](=O)[O-])c(Br)n1Cc1ccc(Cl)c(Cl)c1`, 885 nM; as for `c1ccc2c(c1)C1=NCCN1c1ccccc1-2`, 544 nM. Consider `Cc1noc(C)c1COc1cccc(C(=O)OC(C)C(=O)Nc2ccc3c(c2)OCO3)c1` (configuration not stated), for which the AC26 is 40.4 nM. To `CCOc1ccc(Br)cc1C(=O)Nc1ccc(C(=O)NCC(C)C)cc1` belongs 4090 nM. As for `COc1ccc(C(=O)/C=C/c2ccc(-c3ccccc3)cc2)cc1CSCC(=O)O`, the figure is 1480 nM; as for `Cc1cc(=O)n2c3c(c4c(cc13)c(CN(C)C)cc(=O)n4C)OC2`, 3030 nM; as for `Oc1ccc(C2=NNC(=NCc3ccc4c(c3)OCO4)SC2)c(O)c1`, 4890 nM. As for `O=C(CCl)N1c2ccccc2Sc2c1ccc1ccccc21`, the figure is 257 nM.

For `Cn1c(=O)n(C)c2cc(NS(=O)(=O)c3ccc(C(C)(C)C)cc3)ccc21`, the AC26 was 9340 nM. As to `Cc1cc(-c2nnc3n2N=C(c2ccc(-c4ccccc4)cc2)CS3)n[nH]1`, the AC26 is 2760 nM. Turning to `COc1cc(C(=O)NCC(=O)NCCN2C(=O)S/C(=C\c3ccccc3Cl)C2=O)cc(OC)c1OC`, the AC26 was 2430 nM.

For the molecule `COc1cc(C(=O)N/N=C/c2ccccn2)cc(OC)c1OC`, the AC26 is 1160 nM. To `COc1cc(C(=O)Nc2cc3c(cc2N2CCCCC2)n(C)c(=O)n3C)cc(OC)c1OC` belongs 3870 nM; to `CCOC(=O)c1c(NC(=O)CN2C(=O)NC3(CCCCC3C)C2=O)sc(C)c1CC` (configuration not stated), 6750 nM. As for `Cc1cc(NC(=O)CSc2nc3c(C)cccc3cc2C#N)no1`, the figure is 3320 nM.

Consider `CSc1ncnc2c1ncn2CCCN[C@H](C)c1cccc2ccccc12`, for which the AC26 is 679 nM. As for `CCOC(=O)C(CC)(CC)C(=O)/C=C/c1cccc(Br)c1`, the AC26 was 517 nM. As for `O=C(CC1Sc2ccccc2NC1=O)NNc1ccc(Cl)c(Cl)c1` (configuration not stated), the figure is 2840 nM; as for `COc1ccc(CCCC(=O)NCc2ccccc2)cc1C`, 6540 nM. To `C/C(=N/NC(=O)c1cccs1)c1ccc(NC(=O)COc2ccc(Cl)cc2Cl)cc1` belongs 6270 nM; to `CC1CCCCN1C(=O)NC12CC3CC(CC(C3)C1)C2` (configuration not stated), 4170 nM; to `C[C@H](CO)N1C[C@H](C)[C@@H](CN(C)S(=O)(=O)c2ccccc2)Oc2c(NC(=O)Cc3ccccc3)cccc2C1=O`, 3400 nM. Take `O=C1CCNc2cc3ccccc3cc21`: the AC26 was 32.5 nM. To `COc1ccc(C(=O)C=Cc2ccc(OCc3ccccc3)c(OC)c2)cc1OC` belongs 2690 nM; to `COc1cccc(C(N)c2nc(-c3csc4ccccc34)cs2)c1` (configuration not stated), 3590 nM. As for `CCn1c(=O)c([N+](=O)[O-])c(Cl)c2ccccc21`, the figure is 1390 nM; as for `COC(=O)C1=C(c2cc3ccccc3o2)C[C@@H]2CC[C@H]1N2C(=O)N1CCCCC1`, 14200 nM. To `Cc1nc2ncccn2c1-c1csc(Nc2ccc(N(C)C)cc2)n1` belongs 31.5 nM.

The record behind these values is PubChem BioAssay AID624491 (Broad Institute, 2012).
